Series [1] in a line: Dentinal tubule penetration by confocal laser scanning microscopy. The note with it: Rhodamin B-labeled Cpne7-DP 20 µg microbrushed for 1 min onto acid-etched dentin of extracted tooth, PBS wash. Also on record: species or system human. The procedure:
Human third molars were collected at the Seoul National University Dental Hospital (Seoul, Korea), and the experimental protocol was approved by the Institutional Review Board (IRB No: S-D20140007). Teeth were decoronated to 2–3 mm using a safe diamond disc (Isomet, Buehler Ltd., Düsseldorf, Germany) to eliminate the coronal enamel layer and expose the dentin surface. Teeth were then treated with 5 mL of 32% phosphoric acid solution for 5 min to completely open the dentinal tubules. To remove the residual smear layer, specimens were ultrasonicated in deionized water twice for 5 min each and then rinsed with PBS three times.
Cpne7-DP was tagged with Rhodamin B dye using the Rhodamine Fast Conjugation kit (ab188286, Abcam, Cambridge, MA, USA) according to the manufacturer’s instructions. Rhodamin B-labeled Cpne7-DP (20 µg) was applied to the dentin surfaces of specimens with the help of disposable microbrushes for 1 min, and then specimens were washed with PBS three times. Subsequently, the specimens were longitudinally sectioned at a thickness of 0.5 mm using a safe diamond disc. The sections were mounted onto glass slides and scanned under a confocal laser scanning microscope (LSM 700; Carl Zeiss, Jena, Germany).

Series [2] has as its system hDPCs. Description: MTT cytotoxicity / proliferation assay. Format: cell-based, human. The note with it: 0 to 5 days, absorbance 540 nm, three independent experiments in triplicate. The method, then: To evaluate the effects of Cpne7-DP on hDPCs proliferation, an MTT [3-(4,5-Dimethylthiazol-2-yl)-2,5-diphenyltetrazolium bromide, a tetrazole] assay (Sigma-Aldrich, Saint Louis, MO, USA) was performed. Cells were seeded on a 96-well plate at a density of 3 × 10^3 cells/well and treated with Cpne7-DP after 24 h. Cells were cultured for up to 5 days, and MTT analyses were performed on days 0, 1, 3, and 5. After washing with phosphate-buffered saline (PBS), 20 µL of MTT was added to each well and incubated for 4 h at 37 °C. After removing the MTT solution, the converted dye was dissolved in Me2SO and measured by reading the absorbance at a wavelength of 540 nm with a microplate reader (Multiskan EX; Thermo Electron Corp., Waltham, MA, USA). Three independent experiments with triplicate samples were analyzed.

Series [3] concerns MDPC-23 cells. Description: Peptide translocation and localization by immunofluorescence. The series is classed as cell-based, mouse. The method, then:
For peptide translocation and localization analysis, a Cy5 Fast Conjugation Kit (ab188288, Abcam, Cambridge, MA, USA) was used to tag Cpne7-DP according to the manufacturer’s instructions. MDPC-23 cells were treated with Cy5-labeled Cpne7-DP (10 µg/mL) and fixed 3 h later. Before fixing with 4% paraformaldehyde in PBS, cells in Laboratory-Tek chamber slides (Nunc, Rochester, NY, USA) were washed with PBS. Cells were then visualized using fluorescence microscopy (AX70, Olympus, Tokyo, Japan). DAPI (Sigma-Aldrich) was used to identify the chromosomal DNA in the nucleus (1:1000 dilution).

Ends that are not written are not given here.

As to KYKQKRRSYK [Cpne7-DP], the “Ability to permeate dentinal tubules” value in series [1] is “flow through the entire length of the dentinal tubules into the pulp”. Further, the “Cytotoxicity versus control (MTT)” value in series [2] was “no significant difference in cytotoxicity”. The “Internalization with chlorpromazine (clathrin-mediated endocytosis inhibitor)” value in series [3] (MDPC-23 cells pre-treated with CPZ 10 and 20 μM for 1 h, immunofluorescence) is reported as “diffusely localized to the cytoplasm”. Besides, the “Internalization with ethylisopropyl amiloride (macropinocytosis inhibitor)” value in series [3] (MDPC-23 cells pre-treated with EIPA for 1 h, immunofluorescence) is “no effect on the cytoplasmic localization”. In addition, the “Internalization with methyl-β-cyclodextrin (caveolin-mediated endocytosis inhibitor)” value in series [3] (MDPC-23 cells pre-treated with MβCD for 1 h, immunofluorescence) is listed as “diffusely localized to the cytoplasm”. Further, the “Internalization in nucleolin siRNA-transfected cells” value in series [3] (MDPC-23 cells pre-treated with nucleolin siRNA for 1 h, immunofluorescence) was “diffusely located in the cytoplasm”. Also, in series [3] (MDPC-23 cells, Cy5-labeled Cpne7-DP 10 µg/mL, fixed 3 h later, fluorescence microscopy), the Intracellular distribution result was “localized to the cytoplasm”.

Source of the values: PMC7603008 (Materials, 2020).
